Results taken from the supplement of paper PMC10307832.

How the values were obtained:
Test in all cases: relative viability (nuclei count vs DMSO), 5 days (fraction); higher = more cells survive
[1] = compound: C1CC(C1)(C(=O)O)C(=O)O.[NH2-].[NH2-].[Pt+2] [Carboplatin] + COc1cc2c(Oc3ccc(NC(=O)C4(C(=O)Nc5ccc(F)cc5)CC4)cc3F)ccnc2cc1OCCCN1CCOCC1 [Foretinib] (partner 0.25 µM)
In short: (§1)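 Dosing by pin tool came one day after lung cancer cell lines were seeded in 1536-well plates, using either one drug or a fixed anchor-drug dose plus five library-drug doses (not always all listed) in √10 steps. After 5 days, nuclei were counted on 4× images. Relative viability is treated-well nuclei count divided by vehicle-well nuclei count, and values are medians of duplicate plates.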

[2] = compound: CC[C@H](C)N1C=C(C2=C(C=C(C=C21)C3=CN=C(C=C3)N4CCNCC4)C(=O)NCC5=C(C=C(NC5=O)C)C)C [GSK126] + Nc1nc2[nH]cc(CCc3ccc(C(=O)N[C@@H](CCC(=O)O)C(=O)O)cc3)c2c(=O)[nH]1 [Pemetrexed] (partner 0.2 µM)
In short: as §1

[3] = compound: NS(=O)(=O)OC[C@@H]1C[C@@H](n2ccc3c(N[C@H]4CCc5ccccc54)ncnc32)C[C@@H]1O [MLN4924] + Cc1cc(Nc2cc(N3CCN(C)CC3)nc(Sc3ccc(NC(=O)C4CC4)cc3)n2)n[nH]1 [Tozasertib] (partner 0.1 µM)
In short: as §1

[4] = compound: NS(=O)(=O)OC[C@@H]1C[C@@H](n2ccc3c(N[C@H]4CCc5ccccc54)ncnc32)C[C@@H]1O [MLN4924] + Nc1ncn([C@H]2C[C@H](O)[C@@H](CO)O2)c(=O)n1 [Decitabine] (partner 2 µM)
In short: as §1

Cell Line | relative viability ([1]; first compound 0.08 µM) | relative viability ([1]; first compound 0.253 µM) | relative viability ([1]; first compound 0.8 µM) | relative viability ([1]; first compound 2.53 µM) | relative viability ([1]; first compound 8 µM) | relative viability ([2]; first compound 0.08 µM) | relative viability ([2]; first compound 0.253 µM) | relative viability ([2]; first compound 0.8 µM) | relative viability ([2]; first compound 2.53 µM) | relative viability ([2]; first compound 8 µM) | relative viability ([3]; first compound 0.04 µM) | relative viability ([3]; first compound 0.1265 µM) | relative viability ([3]; first compound 0.4 µM) | relative viability ([3]; first compound 1.265 µM) | relative viability ([3]; first compound 4 µM) | relative viability ([4]; first compound 0.04 µM) | relative viability ([4]; first compound 0.1265 µM) | relative viability ([4]; first compound 0.4 µM) | relative viability ([4]; first compound 1.265 µM) | relative viability ([4]; first compound 4 µM)
PC-14 | 0.945 | 0.885 | 0.942 | 0.905 | 0.694 | 0.131 | 0.133 | 0.135 | 0.155 | 0.148 | 0.592 | 0.569 | 0.605 | 0.177 | 0.0608 | 0.275 | 0.177 | 0.105 | 0.0656 | 0.104
HCC-15 | 1.05 | 1.04 | 0.969 | 0.845 | 0.715 | 0.221 | 0.229 | 0.224 | 0.215 | 0.238 | 0.266 | 0.167 | 0.129 | 0.0769 | 0.0852 | 0.322 | 0.217 | 0.17 | 0.0917 | 0.111
NCI-H2347 | 1.51 | 1.01 | 1.14 | 1.23 | 0.788 | 0.422 | 0.396 | 0.448 | 0.441 | 0.461 | 0.647 | 0.546 | 0.386 | 0.283 | 0.241 | 0.623 | 0.694 | 0.495 | 0.413 | 0.335
LOU-NH91 | 0.991 | 0.998 | 0.955 | 0.921 | 0.922 | 0.399 | 0.35 | 0.376 | 0.362 | 0.423 | 0.641 | 0.689 | 0.502 | 0.336 | 0.342 | 0.793 | 0.797 | 0.684 | 0.557 | 0.523
LCLC-103H | 0.752 | 0.83 | 0.806 | 0.703 | 0.632 | 0.397 | 0.499 | 0.431 | 0.469 | 0.538 | 0.493 | 0.533 | 0.364 | 0.168 | 0.137 | 0.807 | 0.638 | 0.547 | 0.261 | 0.315
EMC-BAC-2 | 1.07 | 1.06 | 1.02 | 1.03 | 0.898 | 0.421 | 0.46 | 0.46 | 0.419 | 0.376 | 0.254 | 0.254 | 0.208 | 0.212 | 0.239 | 0.829 | 0.663 | 0.428 | 0.219 | 0.264
NCI-H2228 | 0.907 | 0.831 | 0.626 | 0.845 | 0.532 | 0.374 | 0.312 | 0.354 | 0.312 | 0.392 | 0.259 | 0.195 | 0.122 | 0.144 | 0.123 | – | – | – | – | –
NCI-H727 | 1.1 | 0.967 | 0.9 | 0.792 | 0.637 | – | – | – | – | – | 0.677 | 0.462 | 0.432 | 0.335 | 0.328 | 0.783 | 0.823 | 0.546 | 0.493 | 0.502
NCI-H1563 | 0.931 | 0.954 | 0.92 | 0.929 | 0.888 | 0.848 | 0.808 | 0.772 | 0.579 | 0.754 | – | – | – | – | – | – | – | – | – | –
NCI-H1703 | 0.446 | 0.397 | 0.34 | 0.403 | 0.37 | – | – | – | – | – | – | – | – | – | – | – | – | – | – | –
NCI-H1648 | – | – | – | – | – | 0.693 | 0.766 | 0.884 | 0.945 | 0.76 | 0.417 | 0.164 | 0.247 | 0.203 | 0.279 | 0.572 | 0.507 | 0.398 | 0.305 | 0.336
NCI-H1792 | – | – | – | – | – | 0.89 | 0.727 | 0.806 | 0.698 | 0.818 | – | – | – | – | – | 0.72 | 0.556 | 0.571 | 0.377 | 0.219
ABC-1 | 1.28 | 1.09 | 1.1 | 0.769 | 0.398 | – | – | – | – | – | 0.154 | 0.155 | 0.144 | 0.132 | 0.149 | 1.12 | 1.33 | 0.929 | 0.28 | 0.402
IA-LM | 1.25 | 1.06 | 1.21 | 1.19 | 1 | – | – | – | – | – | – | – | – | – | – | – | – | – | – | –
HCC-44 | – | – | – | – | – | 0.65 | 0.712 | 0.581 | 0.602 | 0.551 | 0.816 | 0.471 | 0.186 | 0.231 | 0.272 | 0.874 | 0.85 | 0.582 | 0.421 | 0.399
A549 | 1.03 | 0.991 | 0.888 | 0.768 | 0.741 | – | – | – | – | – | – | – | – | – | – | 0.213 | 0.189 | 0.112 | 0.0579 | 0.0418
NCI-H1299 | 1.13 | 1.09 | 1.04 | 1.05 | 0.996 | – | – | – | – | – | – | – | – | – | – | – | – | – | – | –
NCI-H1623 | 0.959 | 0.919 | 0.884 | 0.747 | 0.725 | – | – | – | – | – | 0.42 | 0.372 | 0.398 | 0.203 | 0.195 | – | – | – | – | –
NCI-H522 | – | – | – | – | – | 1.02 | 0.772 | 0.95 | 0.865 | 1.06 | 0.503 | 0.502 | 0.458 | 0.363 | 0.304 | 0.626 | 0.598 | 0.571 | 0.401 | 0.406
EBC-1 | 0.0979 | 0.108 | 0.108 | 0.0821 | 0.101 | – | – | – | – | – | – | – | – | – | – | – | – | – | – | –
Calu-6 | 0.911 | 0.919 | 0.793 | 0.789 | 0.415 | – | – | – | – | – | – | – | – | – | – | – | – | – | – | –
CAL-12T | 1.1 | 1.06 | 1.2 | 1.02 | 1.07 | 1.31 | 1.37 | 1.09 | 1.13 | 1.43 | 0.325 | 0.365 | 0.262 | 0.237 | 0.167 | – | – | – | – | –
